Results taken from patent US20040002117A1 (priority 1998, published 2004).
Values belong to the compound of their own block, whether it stands above or below them.

Columns and labels:
[1] = molecular target: T1, recombinant human calcineurin catalytic domain, calcineurin(2-347) (Homo sapiens, UniProt Q08209, L343A/M347D/Y341S); assay: fluorescence polarization competition assay, displacement of OG-VIVIT from calcineurin; type: binding; settings: for displacement of OG-VIVIT from calcineurin: at high concentrations, 1 μM calcineurin, 60 nM OG-VIVIT; for IC50: calcineurin-VIVIT peptide interaction, read-out: Estimated IC50
T1 construct: GST (N, cleaved yes); made in house; host or cells: E. coli strain DH5α
Procedure: Samples were analyzed as described in the preceding paragraph, and the resulting polarization data were plotted against the concentration of unlabelled VIVIT peptide, as shown in FIG. 8B.
The library stocks were dissolved at a nominal concentration of 10 mM in DMSO, and formatted for convenient robotic transfer on 384-well plates at the Institute of Chemistry and Cell Biology, Harvard Medical School. To initiate the competition assay, 40 nl volumes were pin-transferred from each well of a library stock plate to the corresponding wells of an assay plate, utilizing a robotic device. After a minimum 10 min incubation at room temperature to allow the binding to reach equilibrium, fluorescence polarization data were collected employing an Analyst plate reader (Molecular Devices).
Stocks of candidate inhibitor compounds and their structural analogues were purchased from ChemBridge or Asinex. The structure and purity of individual compounds were verified by ^1H NMR, mass spectrometry, or thin-layer chromatography. […] INCA1, INCA2, and INCA6 can be represented generally as follows: […]

calcineurin [2] = molecular target: calcineurin (Homo sapiens, UniProt Q08209, L343A/M347D/Y341S); assay: 1H NMR titration spectroscopy binding experiments; settings: 10 μM compound, 20 μM calcineurin, 25° C., buffered D2O
Procedure: T2-filtered ^1H NMR spectra were obtained on a Bruker Avance 600 instrument with CryoPhobe using low-power presaturation of residual water. Preacquisition delays included up to five spin echos to suppress fast-relaxing broad protein resonances and were times to yield in-phase signals for J-coupled spins. Chemical shifts were referenced to internal standard 5 μM 2,2-dimethylsilapentane-5-sulfonic acid (DSS).

[3] = molecular target: T2, dephosphorylation of NFAT by calcineurin (Homo sapiens, UniProt Q08209); assay: in vitro dephosphorylation of NFAT1 in C1.7W2 T cell lysates by recombinant calcineurin; type: biochemical; settings: 500 nM calcineurin, 600 nM calmodulin, 30 minutes at 30° C.; INCA2 at micromolar concentrations
calcineurin [4] = molecular target: T3, calcineurin (Homo sapiens, UniProt Q08209); assay: calcineurin phosphatase assay with phosphorylated RII peptide, Malachite green detection; type: biochemical; settings: 100 μM INCA compound or 100 μM VIVIT peptide; 6.8 nM calcineurin, 15 min at 25° C.
calcineurin [5] = molecular target: T3, calcineurin; assay: in vitro dephosphorylation of recombinant 32P-labelled RIIα protein by calcineurin; type: biochemical
calcineurin [6] = molecular target: T3, calcineurin; assay: dephosphorylation of GST-Tau protein by calcineurin; type: biochemical
[7] = molecular target: T4, dephosphorylation of NFAT1 by calcineurin (Homo sapiens, UniProt Q08209); assay: in vitro dephosphorylation of NFAT1(1-460)-GFP by calcineurin in HeLa cytosolic extracts, Western blotting; type: biochemical
Procedure: Samples were resolved by SDS-PAGE and dephosphorylation was assessed with anti-HA antibody 12CA5. […] Slightly higher concentrations of the peptides were required to inhibit the in vitro dephosphorylation than were required to inhibit NFAT-calcineurin binding, presumably due to some degradation of the peptides by enzymes present in the cell extracts.

calcineurin [8] = molecular target: T3, calcineurin; assay: dephosphorylation of 32P-RII phosphopeptide by calcineurin; type: biochemical; settings: 32P-RII phosphopeptide 100 μM, calcineurin 100 nM; peptides 30 μM to 400 μM; FK506/FKBP12 10 μM/10 μM
Procedure: The dephosphorylation reaction was allowed to proceed for 30 min at 30° C. after which the reaction was stopped by addition of excess 0.1% trichloroacetic acid, substrate peptide was removed by adsorption onto a cation exchange resin (AG50W; BioRad Laboratories, Hercules, Calif.), and released ^32P label in the supernatant was measured in a liquid scintillation counter.

[9] = molecular target: T4, dephosphorylation of NFAT1 by calcineurin; assay: dephosphorylation of HA-NFAT1(1-460)-GFP in HEK-293 cytosolic extracts by calcineurin/calmodulin; type: biochemical; settings: wild type 13-mer 100 μM or 400 μM; mutant 400 μM; calcineurin/calmodulin 100 nM to 900 nM
Procedure: (§1) The HA-tagged N-terminal domains of NFAT1 and NFAT4 were expressed as the fusion proteins HA-NFAT1(1-460)-GFP and HA-NFAT4(1-407)-GFP in HEK-293 cells. […] Dephosphorylation was allowed to proceed for 30 min at 30° C., and samples were analyzed by SDS-PAGE and Western blotting with anti-HA antibody.

[10] = molecular target: dephosphorylation of NFAT4 by calcineurin (Homo sapiens, UniProt Q08209); assay: dephosphorylation of HA-NFAT4(1-407)-GFP in HEK-293 cytosolic extracts by calcineurin/calmodulin; type: biochemical; settings: wild type 13-mer 100 μM or 400 μM; mutant 400 μM; calcineurin/calmodulin 100 nM to 900 nM
Procedure: as §1

[11] = molecular target: calcineurin binding to GST-NFAT1 (Homo sapiens, UniProt Q08209); assay: binding of activated calcineurin to GST-NFAT1(1-415), glutathione-Sepharose collection and Western blotting
[12] = molecular target: T2, dephosphorylation of NFAT by calcineurin; assay: calcineurin-mediated dephosphorylation of HA-NFAT1(1-460)-GFP in HeLa cell lysates; type: biochemical; settings: 200 nM calcineurin, 600 nM calmodulin, 30 min at 30 C.; peptide amounts as in FIG. 5B
[13] = molecular target: calcineurin binding to NFAT1 (Homo sapiens, UniProt Q08209); assay: 125I-calcineurin binding to GST-NFAT1(1-400) immobilized on glutathione-Sepharose beads; settings: at concentrations up to 100 μM
[14] = tested on: NFAT-dependent reporter gene (3×NFAT-Luc) in Jurkat cells; assay: 3×NFAT-Luc luciferase reporter in transfected Jurkat cells; type: cell-based, human; settings: GFP fusion expressed in Jurkat cells; PMA and ionomycin 6 hours
[15] = peptide concentrations in the range from 16 μM to 400 μM, calcineurin 200 nM, calmodulin 600 nM, 30 min at 30° C.

- Ki [1]: 500 to 2000 nM
- displacement of OG-VIVIT from calcineurin [1]: complete
- IC50 [1]: 1000 nM
- binding to calcineurin in the absence of VIVIT peptide (calcineurin [2]): direct molecular interaction
Compound: CC(=O)C(C(C)=O)C1=C(Cl)C(=O)C(=O)c2c(C(=O)c3ccccc3)coc21 [INCA1]

- Ki [1]: 100 to 500 nM
- displacement of OG-VIVIT from calcineurin [1]: complete
- IC50 [1]: 3000 nM
- binding to calcineurin in the absence of VIVIT peptide (calcineurin [2]): direct molecular interaction
- dephosphorylation of NFAT by calcineurin in vitro [3]: blocked
- release of free phosphate from RII phosphopeptide (calcineurin [4]): not affected
Compound: O=C1C(Cl)=C(Cl)C(=NS(=O)(=O)c2ccccc2)c2ccccc21 [INCA2]

Compound: O=P([O-])([O-])OP(=O)([O-])[O-].[Na+].[Na+].[Na+].[Na+] [sodium pyrophosphate, reference compound]
- inhibition of dephosphorylation of RIIα protein by control inhibitors (calcineurin [5]; sodium pyrophosphate 20 mM, CsA/cyclophilin […] μM/5 μM, FK506/FKBP12 4 μM/4 μM): efficiently inhibited
- inhibition of dephosphorylation of GST-Tau protein by control inhibitors (calcineurin [6]; sodium pyrophosphate 10 mM, CsA/cyclophilin […] μM/5 μM): efficiently inhibited
- dephosphorylation of NFAT by calcineurin in vitro [3]: no dephosphorylation

- inhibition of dephosphorylation of NFAT1 by calcineurin in vitro [7, 15]: inhibited
- inhibition of dephosphorylation of HA-NFAT1(1-460)-GFP [9]: inhibited dephosphorylation
- inhibition of dephosphorylation of HA-NFAT4(1-407)-GFP [10]: inhibited dephosphorylation
- inhibition of the binding of activated calcineurin to GST-NFAT1 ([11]; 200 nM calcineurin, 600 nM calmodulin, 2 mM CaCl2, peptide amounts as in FIG. 5A): inhibited
- inhibition of NFAT dephosphorylation [12]: effective
Compound: CC[C@H](C)[C@H](NC(=O)[C@H](CCCNC(=N)N)NC(=O)[C@@H]1CCCN1C(=O)[C@H](CO)NC(=O)[C@@H]1CCCN1C(=O)CNC(=O)[C@@H](N)CO)C(=O)N[C@@H](CCC(=O)O)C(=O)N[C@H](C(=O)N[C@H](C(=O)N1CCC[C@H]1C(=O)N[C@@H](CO)C(=O)N[C@@H](Cc1c[nH]cn1)C(=O)O)[C@@H](C)O)[C@@H](C)CC [wild type 13-mer peptide]
- inhibition of dephosphorylation of the RII peptide by calcineurin (calcineurin [8]): Neither of the SPRIEITPS peptides inhibited

- inhibition of dephosphorylation of NFAT1 ([7]; 500 μM peptide): fully inhibited
- inhibition of dephosphorylation of NFAT1 by calcineurin in vitro [7, 15]: inhibited
- inhibition of dephosphorylation of RIIα protein (calcineurin [5]; peptide 20 μM and 100 μM, calcineurin 200 nM, 45 min at 30° C.): did not inhibit
- inhibition at 500 µM (calcineurin [5]; peptide 500 μM): 18%
- inhibition of dephosphorylation of GST-Tau protein by calcineurin (calcineurin [6]; peptide 20 μM and 100 μM, calcineurin 200 nM, 90 min at 30° C.): not inhibited
- inhibition at 500 µM (calcineurin [6]; read-out: inhibition of dephosphorylation of GST-Tau protein by calcineurin, peptide 500 μM): 10%
Compound: CC[C@H](C)[C@H](NC(=O)[C@H](CCCNC(=N)N)NC(=O)[C@@H]1CCCN1C(=O)[C@H](CO)NC(=O)[C@@H]1CCCN1C(=O)CNC(=O)[C@H](CO)NC(=O)[C@H](C)NC(=O)CNC(=O)[C@H](C)NC(=O)[C@@H]1CCCN1C(=O)[C@@H](N)CCCCN)C(=O)N[C@@H](CCC(=O)O)C(=O)N[C@H](C(=O)N[C@H](C(=O)N1CCC[C@H]1C(=O)N[C@@H](CO)C(=O)N[C@@H](Cc1c[nH]cn1)C(=O)N[C@@H](CCC(=O)O)C(=O)N[C@@H](CC(C)C)C(=O)N[C@@H](CCSC)C(=O)N[C@@H](CCC(N)=O)C(=O)N[C@@H](C)C(=O)NCC(=O)NCC(=O)N[C@@H](Cc1ccc(O)cc1)C(=O)O)[C@@H](C)O)[C@@H](C)CC [wild type 26-mer peptide]
- inhibition of dephosphorylation of the RII peptide by calcineurin (calcineurin [8]): Neither of the SPRIEITPS peptides inhibited

- inhibition of the NFAT1-calcineurin interaction [13]: did not inhibit
- inhibition of dephosphorylation of NFAT1 by calcineurin in vitro ([7]; only at concentrations above 400 μM): only marginally inhibitory
- inhibition of dephosphorylation of HA-NFAT1(1-460)-GFP [9]: little or no inhibition
- inhibition of dephosphorylation of HA-NFAT4(1-407)-GFP [10]: little or no inhibition
- inhibition of calcineurin binding to GST-NFAT1 ([11]; peptide 100 μM): did not inhibit
Compound: CM2 mutant 26-mer peptide: 26-mer control peptide with R112 to A, E114 to A, T116 to A substitutions and appended tyrosine (KPAGASGPSPAIAIAPSHELMQAGGY) [reference compound]

Compound: GFP-SPRIEIT: GFP-SPRIEIT fusion protein, expression vector previously described (Aramburu et al 1998)
- block of induced luciferase expression, endogenous NFAT [14]: partially blocked
